Source: publication PMC12362796, “Bilirubin Targeting WNK1 to Alleviate NLRP3‐Mediated Neuroinflammation” (Advanced Science, 2025)

What was measured:
UnaG = biological target: UnaG; set-up: method as in PMID 23768684; details: modified FABP family member derived from eel; cited from earlier work
PPARα = biological target: PPARα; set-up: method as in PMID 37390966, PMID 34067839; details: liver and adipose tissue; cited from earlier work
hWNK2 = biological target: T1, hWNK2 (Homo sapiens, UniProt Q9Y3S1); assay: MST, WNK kinase family member WNK2; format: binding
T1 construct: host or cells: HEK293T
Protocol: (§1) To validate the direct binding of bilirubin to WNK1, we performed a Microscale Thermophoresis (MST) analysis, which assesses the binding capacity of a compound by measuring the movement of proteins over a microscopic temperature gradient.^[ [26], [27] ^] We overexpressed full‐length WNK1 fused with Green Fluorescent Protein (GFP) in HEK‐293 cells, incubated the lysates with bilirubin at varying dilutions, and subjected them to precise MST measurements in capillaries. […] Furthermore, biliverdin, a structurally similar intermediate product generated before bilirubin formation, was used as a control.
(§2) All WNK1 clones were derived from the original untagged hWNK1 cDNA (NM_018979), which was modified and subcloned into the pcDNA3.1, referred to as “full‐length WNK1” throughout this study. Truncated constructs, including 1–190aa, 191–491aa, 1–491aa, and 491–2382aa fragments, were generated by PCR using the full‐length template and subsequently ligated into linearized pcDNA3.1 vectors. WNK2 was obtained from Addgene Plasmid #24569, and WNK3 was obtained from Addgene Plasmid #81723. Both were subjected to base modifications and cloned into pcDNA3.1. The WNK4 clone was derived from hWNK4 cDNA (NM_032387.5), modified, and subcloned into the pCMV3‐C‐GFPSpark vector.
(§3) In HEK293T cells, proteins tagged with green fluorescent protein (GFP) were expressed. […]

WNK1 (1–491) = biological target: T2, WNK1 (1–491) (Homo sapiens, UniProt Q9H4A3); assay: MST, EGFP-tagged WNK1 truncation 1–491; format: binding; details: WNK1 1–491, 15 min, HEK293T lysates
T2 construct: different lengths of WNK1 truncations (1–491, 1–190, 191–491, 491–2382); expressed in transfected cells; host or cells: HEK293T
Text: (§4) To further validate these findings, we constructed GFP‐tagged fusion proteins with different lengths of WNK1 truncations (1–491, 1–190, 191–491, 491–2382) based on the WNK1 domains (Figure 3E) and analyzed their binding capacity with bilirubin using MST analysis.^[ [29] ^]
as §2
(§5) In HEK293T cells, proteins tagged with green fluorescent protein (GFP) were expressed. The cells were lysed using the M‐PER Mammalian Protein Extraction Reagent (cat. no. 78505, Thermo Scientific) supplemented with protease inhibitors. Lysates were centrifuged at 12000 × g for 15 min at 4 °C, and the supernatant containing proteins was diluted 10‐fold with 1x PBST. […]

MRGPRs = biological target: MRGPRs; set-up: method as in PMID 37390966, PMID 30657454; details: peripheral sensory neurons; cited from earlier work
hWNK4 = biological target: T3, hWNK4 (Homo sapiens, UniProt Q96J92); assay: MST, WNK kinase family member WNK4; format: binding
T3 construct: expressed in transfected cells; host or cells: HEK293T
Protocol: as §1, §2, §3

WNK1 (491–2382) = biological target: T4, WNK1 (491–2382) (Homo sapiens, UniProt Q9H4A3); assay: MST, EGFP-tagged WNK1 truncation 491–2382; format: binding; details: WNK1 491–2382 (non-kinase segment), 15 min, HEK293T lysates
T4 construct: different lengths of WNK1 truncations (1–491, 1–190, 191–491, 491–2382); expressed in transfected cells; host or cells: HEK293T
Text: as §4, §2, §5

TRPM2 channels = system: TRPM2 channels; set-up: method as in PMID 36921602; details: activation of TRPM2 channels; cited from earlier work
WNK1 = biological target: T5, WNK1 (Homo sapiens, UniProt Q9H4A3); assay: CETSA-Western blotting in SH-SY5Y cells; format: cell-based; details: 6 µM in serum-free medium vs DMSO, denaturation at different temperatures, soluble fraction
T5 construct: endogenous in cells; host or cells: SH-SY5Y
Protocol: To validate these findings, SH‐SY5Y cells were incubated in a serum‐free medium with bilirubin (6 µM) or an equivalent amount of DMSO as the control, followed by protein denaturation at different temperatures (Figure 1A).
Cells or tissues were lysed by grinding in RIPA buffer (cat. no. PC101; Epizyme Biotech) supplemented with a protease inhibitor cocktail (cat. no. 5872S; Cell Signaling Technology) at 4 °C. The lysate was subsequently centrifuged at 16000 × g for 30 min at 4 °C and the resulting supernatant was collected. The total protein concentration was determined using the Pierce BCA Protein Assay Kit (cat. no. 23 225, Thermo Fisher Scientific). The samples were denatured in a Protein Sample Loading Buffer (cat. no. LT101; Epizyme Biotech) at 95 °C and subjected to SDS‐polyacrylamide gel electrophoresis. Following electrophoresis, the proteins were transferred onto a nitrocellulose membrane (cat. no. HATF00010; Millipore) using a transfer buffer composed of 25 mM Tris, 190 mM glycine, and 20% methanol. Membranes were blocked with blocking buffer for western blotting (cat. no. P0252; Beyotime Biotechnology) at room temperature for 15 min, followed by overnight incubation with the primary antibody at 4 °C. After primary antibody incubation, the membranes were washed and incubated with secondary antibody at room temperature for 1 h. […]

T1 sequence (Q9Y3S1 whole entry): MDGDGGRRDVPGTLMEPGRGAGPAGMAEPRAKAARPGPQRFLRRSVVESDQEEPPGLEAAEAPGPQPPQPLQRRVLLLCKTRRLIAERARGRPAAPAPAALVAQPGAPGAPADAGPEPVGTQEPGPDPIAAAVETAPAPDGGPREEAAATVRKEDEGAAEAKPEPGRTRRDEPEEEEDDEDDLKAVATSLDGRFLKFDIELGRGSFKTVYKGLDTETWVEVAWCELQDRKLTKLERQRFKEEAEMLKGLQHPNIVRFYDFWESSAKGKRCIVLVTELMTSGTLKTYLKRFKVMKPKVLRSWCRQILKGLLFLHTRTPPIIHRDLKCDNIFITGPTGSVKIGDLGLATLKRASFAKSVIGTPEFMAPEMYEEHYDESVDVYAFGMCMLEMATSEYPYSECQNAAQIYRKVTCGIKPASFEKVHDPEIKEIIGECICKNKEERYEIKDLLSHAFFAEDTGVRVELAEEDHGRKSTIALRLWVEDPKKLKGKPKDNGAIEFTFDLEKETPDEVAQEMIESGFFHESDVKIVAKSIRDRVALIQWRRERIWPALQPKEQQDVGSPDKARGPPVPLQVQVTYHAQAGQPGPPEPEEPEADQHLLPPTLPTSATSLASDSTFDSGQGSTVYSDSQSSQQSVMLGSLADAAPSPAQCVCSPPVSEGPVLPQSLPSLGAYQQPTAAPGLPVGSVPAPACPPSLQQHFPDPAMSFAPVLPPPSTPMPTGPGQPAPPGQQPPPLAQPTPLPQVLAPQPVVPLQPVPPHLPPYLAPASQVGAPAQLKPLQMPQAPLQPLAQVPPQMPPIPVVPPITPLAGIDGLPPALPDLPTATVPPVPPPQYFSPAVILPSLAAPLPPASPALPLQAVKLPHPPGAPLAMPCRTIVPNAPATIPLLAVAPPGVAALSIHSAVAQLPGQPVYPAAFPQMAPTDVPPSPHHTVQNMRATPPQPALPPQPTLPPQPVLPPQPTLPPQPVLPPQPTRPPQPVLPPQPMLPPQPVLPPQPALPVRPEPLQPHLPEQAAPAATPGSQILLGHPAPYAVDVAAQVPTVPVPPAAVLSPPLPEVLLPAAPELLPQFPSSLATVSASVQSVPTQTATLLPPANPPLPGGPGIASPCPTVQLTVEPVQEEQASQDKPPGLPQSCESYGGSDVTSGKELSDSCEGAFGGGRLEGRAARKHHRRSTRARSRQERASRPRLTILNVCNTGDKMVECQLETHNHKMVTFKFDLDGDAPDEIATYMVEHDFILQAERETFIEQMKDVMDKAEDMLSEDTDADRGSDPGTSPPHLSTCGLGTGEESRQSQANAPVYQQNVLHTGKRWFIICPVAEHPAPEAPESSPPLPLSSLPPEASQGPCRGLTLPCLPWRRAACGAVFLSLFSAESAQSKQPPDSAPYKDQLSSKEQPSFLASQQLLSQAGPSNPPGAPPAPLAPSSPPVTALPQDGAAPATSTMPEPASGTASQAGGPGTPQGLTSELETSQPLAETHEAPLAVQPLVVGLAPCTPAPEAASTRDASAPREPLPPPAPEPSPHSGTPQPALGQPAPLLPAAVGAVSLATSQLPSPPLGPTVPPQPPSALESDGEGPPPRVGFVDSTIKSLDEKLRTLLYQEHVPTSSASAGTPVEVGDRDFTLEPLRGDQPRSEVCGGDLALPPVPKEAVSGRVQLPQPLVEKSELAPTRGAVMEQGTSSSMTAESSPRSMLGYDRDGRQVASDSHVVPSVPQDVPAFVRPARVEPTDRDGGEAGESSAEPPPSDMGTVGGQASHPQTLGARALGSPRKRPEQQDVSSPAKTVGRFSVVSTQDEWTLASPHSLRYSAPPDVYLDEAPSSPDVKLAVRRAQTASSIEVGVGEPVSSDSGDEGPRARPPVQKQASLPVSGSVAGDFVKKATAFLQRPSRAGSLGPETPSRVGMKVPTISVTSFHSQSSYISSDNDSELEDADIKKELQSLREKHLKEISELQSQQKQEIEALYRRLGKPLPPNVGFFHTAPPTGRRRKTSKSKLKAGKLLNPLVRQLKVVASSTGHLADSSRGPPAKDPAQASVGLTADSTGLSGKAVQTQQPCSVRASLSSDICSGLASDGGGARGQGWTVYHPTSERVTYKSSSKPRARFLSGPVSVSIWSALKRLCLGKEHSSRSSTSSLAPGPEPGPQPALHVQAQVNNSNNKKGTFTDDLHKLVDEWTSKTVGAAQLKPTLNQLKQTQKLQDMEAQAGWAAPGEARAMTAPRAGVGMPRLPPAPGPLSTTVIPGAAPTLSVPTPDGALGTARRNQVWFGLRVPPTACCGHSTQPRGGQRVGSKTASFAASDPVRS
T2 sequence (Q9H4A3 1-491): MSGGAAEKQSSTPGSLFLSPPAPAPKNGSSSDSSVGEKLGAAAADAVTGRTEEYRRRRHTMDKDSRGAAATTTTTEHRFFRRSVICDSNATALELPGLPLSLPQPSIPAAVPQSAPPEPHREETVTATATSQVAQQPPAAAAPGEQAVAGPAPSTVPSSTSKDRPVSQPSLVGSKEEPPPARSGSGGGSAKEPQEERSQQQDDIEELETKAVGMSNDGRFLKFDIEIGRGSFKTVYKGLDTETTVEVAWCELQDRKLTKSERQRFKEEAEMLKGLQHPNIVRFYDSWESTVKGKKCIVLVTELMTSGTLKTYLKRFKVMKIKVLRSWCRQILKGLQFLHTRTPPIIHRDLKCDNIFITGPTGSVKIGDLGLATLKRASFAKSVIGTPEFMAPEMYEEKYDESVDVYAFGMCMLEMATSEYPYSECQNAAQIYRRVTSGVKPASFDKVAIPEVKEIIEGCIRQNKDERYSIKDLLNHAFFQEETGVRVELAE
T3 sequence (Q96J92 whole entry): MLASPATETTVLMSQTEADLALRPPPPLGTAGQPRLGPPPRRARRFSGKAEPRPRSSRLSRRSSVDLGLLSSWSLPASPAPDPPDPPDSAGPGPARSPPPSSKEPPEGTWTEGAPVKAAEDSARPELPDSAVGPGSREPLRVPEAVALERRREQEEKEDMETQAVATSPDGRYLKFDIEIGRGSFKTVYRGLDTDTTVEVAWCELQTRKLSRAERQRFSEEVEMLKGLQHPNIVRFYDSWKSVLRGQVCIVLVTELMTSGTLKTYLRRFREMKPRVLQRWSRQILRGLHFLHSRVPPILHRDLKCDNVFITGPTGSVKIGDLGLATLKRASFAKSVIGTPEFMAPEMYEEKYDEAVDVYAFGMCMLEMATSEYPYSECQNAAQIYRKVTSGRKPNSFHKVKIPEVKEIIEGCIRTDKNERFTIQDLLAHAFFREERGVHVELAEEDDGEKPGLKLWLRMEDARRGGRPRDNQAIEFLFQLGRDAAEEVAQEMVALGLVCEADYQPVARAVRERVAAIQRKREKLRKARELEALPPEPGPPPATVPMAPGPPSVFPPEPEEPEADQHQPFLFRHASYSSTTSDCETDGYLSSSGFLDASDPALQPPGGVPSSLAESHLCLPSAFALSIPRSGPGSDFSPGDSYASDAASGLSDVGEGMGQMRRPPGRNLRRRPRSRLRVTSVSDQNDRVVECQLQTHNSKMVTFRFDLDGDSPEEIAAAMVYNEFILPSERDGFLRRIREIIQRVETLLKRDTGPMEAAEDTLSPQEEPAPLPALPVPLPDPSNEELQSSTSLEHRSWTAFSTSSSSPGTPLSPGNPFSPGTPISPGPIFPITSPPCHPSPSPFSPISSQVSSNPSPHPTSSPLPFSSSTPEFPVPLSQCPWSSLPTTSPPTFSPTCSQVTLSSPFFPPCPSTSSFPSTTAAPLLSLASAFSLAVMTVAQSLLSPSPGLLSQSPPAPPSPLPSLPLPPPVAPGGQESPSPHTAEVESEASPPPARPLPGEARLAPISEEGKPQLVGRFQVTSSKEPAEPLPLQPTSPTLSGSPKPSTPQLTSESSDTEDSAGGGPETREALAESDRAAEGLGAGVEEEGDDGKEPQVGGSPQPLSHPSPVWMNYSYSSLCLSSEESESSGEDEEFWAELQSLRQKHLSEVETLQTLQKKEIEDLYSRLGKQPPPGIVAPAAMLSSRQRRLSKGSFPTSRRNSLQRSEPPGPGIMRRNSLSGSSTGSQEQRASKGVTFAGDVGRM

- Kd (hWNK2): 530 nM
- Kd (WNK1 (1–491)): 315 nM
- Kd (hWNK4): 280 nM
- Kd (WNK1 (491–2382)): 3190 nM
- thermal stability of WNK1 (WNK1): enhanced thermal stability
Structure (SMILES): C=CC1=C(C)/C(=C/c2[nH]c(Cc3[nH]c(/C=C4\NC(=O)C(C)=C4C=C)c(C)c3CCC(=O)O)c(CCC(=O)O)c2C)NC1=O [bilirubin, Bilirubin]
- Kd (UnaG): 0.098 nM
- Kd (PPARα): 5130 nM
- Kd (MRGPRs): 54400 to 92900 nM
- EC50 (TRPM2 channels): 1900 nM
